{"source": "patent US5250562A", "about": "“Stilbene derivatives” (Hoffmann-La Roche Inc., priority 1988, dated 1993)", "test_system": "chemically induced mammary tumours", "test": "activity against chemically induced (oral administration of dimethylbenzanthracene) mammary tumours in rats", "format": "in vivo", "details": "for Increase or decrease in the average number of tumours per rat: control group +242; for Increase or decrease in the average tumour volume per rat in mm^3: control group +714", "description": "The biological activity of the compounds in accordance with the invention can be determined e.g. using the test procedures described in German Offenlegungsschrift 3 715 955."}
{"molecule": "C/C(=C\\c1ccc(OCCN2CCOCC2)cc1)c1ccc2c(c1)C(C)(C)CCC2(C)C", "note": "[4-[2-[p-[(E)-2-(5,6,7,8-tetrahydro-5,5,8,8-tetramethyl-2-naphthyl)propenyl]phenoxy]ethyl]morpholine]", "values": [{"measurement": "Rats with tumours", "setting": "50 mg/kg/day p.o.", "result": "100 % of controls"}, {"measurement": "Increase or decrease in the average number of tumours per rat", "setting": "50 mg/kg/day p.o.", "result": "+91"}, {"measurement": "Increase or decrease in the average tumour volume per rat in mm^3", "setting": "50 mg/kg/day p.o.", "result": "+550 mm^3"}, {"measurement": "Rats with tumours", "setting": "100 mg/kg/day p.o.", "result": "50 % of controls"}, {"measurement": "Increase or decrease in the average number of tumours per rat", "setting": "100 mg/kg/day p.o.", "result": -73}, {"measurement": "Increase or decrease in the average tumour volume per rat in mm^3", "setting": "100 mg/kg/day p.o.", "result": -77, "unit": "mm^3"}, {"measurement": "Rats with tumours", "setting": "200 mg/kg/day p.o.", "result": "10 % of controls"}, {"measurement": "Increase or decrease in the average number of tumours per rat", "setting": "200 mg/kg/day p.o.", "result": -96}, {"measurement": "Increase or decrease in the average tumour volume per rat in mm^3", "setting": "200 mg/kg/day p.o.", "result": -99, "unit": "mm^3"}]}
